From US9512111B2, “N-sulfonylated tetrahydroquinolines and related bicyclic compounds for inhibition of RORγ activity and the treatment of disease” (Lycera Corporation, priority 2010, dated 2016)
Like-named read-outs stand apart in the source and are kept apart here.

Legend:
RORγt = molecular target: T1, RORγt (Homo sapiens, UniProt P51449); experiment: RORγ Reporter Assay (GAL4-UAS luciferase reporter in HEK293 cells); type: cell-based
T1 construct: The resulting GAL4-RORγt-LBD fusion construct was placed under the control of a constitutive cytomegalovirus (CMV) promoter; expressed in transfected cells; host or cells: HEK293
T1 sequence (P51449 269-508 limits assumed): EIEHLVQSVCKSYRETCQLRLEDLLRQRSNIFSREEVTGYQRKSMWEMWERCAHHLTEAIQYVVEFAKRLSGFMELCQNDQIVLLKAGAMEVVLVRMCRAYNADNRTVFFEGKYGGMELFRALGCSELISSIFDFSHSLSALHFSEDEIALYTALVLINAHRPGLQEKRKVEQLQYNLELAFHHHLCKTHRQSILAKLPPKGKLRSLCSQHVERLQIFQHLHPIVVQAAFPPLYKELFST
Method: Inhibition of RORγt in cells was determined using a GAL4-UAS reporter system in HEK293 cells employing a luciferase readout. The RORγt DNA binding domain (DBD) was replaced with the heterologous yeast GAL4 DBD using standard recombinant DNA methods. The resulting GAL4-RORγt-LBD fusion construct was placed under the control of a constitutive cytomegalovirus (CMV) promoter by cloning it into the CMV-driven mammalian expression vector pcDNA3.1+− (Promega Corporation, Madison, Wis.).
A transcriptional reporter expression construct was used to monitor GAL4-RORγ activity, which contained five copies of the GAL4 binding site enhancer (UAS) controlling expression of a firefly luciferase reporter. This construct, pGL4.31, is commercially available from Promega Corporation, Madison Wis. Both expression constructs were transfected in bulk into HEK-293 cells using standard lipid-based transfection techniques, which allowed the GAL4 RORγ-LBD fusion protein to drive expression of the luciferase reporter. Control transfections were performed with an empty pCDN3.1+ vector.
The next day, cells were plated into 384 well plates, test compound was added, and the plates were incubated overnight. […] Promega firefly assays kits were used to stabilize the luciferase signal, and the intensity of the luciferase signal was measured using an EnVision Multilabel Plate Reader (Perkin Elmer, Waltham, Mass.).
HEK 293 cells are transfected with GAL4-NR construct (CMV:NR-LBD in pcDNA3.1neo) and the pGL4.31 GAL4-luciferase reporter construct (Promega). For a background control, use empty pcDNA3.1neo and pGL4.31. Transfection protocol is for a single T75 flask performed with Minis Trans-It 293 reagent. A 60 μL aliquot of Trans-IT reagent at room temperature is added drop wise to 1.5 mL of Optimem (Invitrogen). The resulting solution is mixed by inversion and incubated for 5-20 minutes at room temperature. This reagent mixture is added to 10 μg of DNA (5 μg of each expression vector used at a concentration of 1 mg/mL). The solution is mixed by inversion and incubated at room temperature for 20 minutes.
While the Trans-IT reagent and DNA are incubating, harvest HEK-293 cells. Remove media from flasks via aspiration and add enough TrypLE Express (stable Trypsin-like reagent, Invitrogen) to cover the bottom of the flask. The mixture is incubated at room temperature until the cells are visibly loose in the flask (approximately 2-5 minutes). Add an equal volume of complete growth media, and then pipette to achieve a single cell suspension. Spin down 1×10^7 cells and re-suspend the cells in 10 mL of complete growth media (DMEM high glucose/10% dialyzed FBS/pen/strep; Invitrogen). The cells and transfection mixture are added to one T75 flask. The contents of the T75 flax are mixed and incubated overnight at 37° C. and 5% CO2.
After 16-24 hours, cells are harvested and plated for test compound screening. Cells may be harvested as described above. Next, cells are counted and an appropriate number of cells are spun down. Then, cells are aspirated and re-suspended in complete growth media at a concentration of 0.5×10^6 cells/mL to provide a cell suspension. Plate 20 μL of the cell suspension into a white, tissue-culture treated 384 well plate. (10,000 cells/well).
A 10 mM stock solution of test compound in dimethylsulfoxide (DMSO) was diluted to 500× the final test concentration in DMSO, then diluted to 5× the final test concentration with complete growth medium to provide the Test Compound Solution. The concentration of DMSO in the Test Compound Solution was […]. A 5 μL aliquot of Test Compound Solution was added to each test well in the 384 well plate previously plated with the cell suspension. Next, plates are spun briefly and incubated overnight at 37° C. and 5% CO2.
After 16-24 hours, the luciferase assay is performed. Plates and luciferase reagent (e.g. One-Glo® or Dual Glo®; Promega, Madison, Wis.) are brought to room temperature.

RORγ-LBD = molecular target: T2, RORγ-LBD (Homo sapiens, UniProt P51449); experiment: RORγ-Ligand Binding Domain TR-FRET Assay; type: biochemical; conditions: benzoxazines, Table 9
T2 construct: HIS-tagged RORγ-LBD was recombinantly expressed in SF9 cells; made in house; host or cells: SF9 cells (baculovirus); unpurified lysate
T2 sequence (P51449 269-508 limits assumed): T1 sequence (P51449 269-508 limits assumed)
In short: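 IC50 derived from the 665 nm/615 nm emission ratio after 4 h to overnight incubation. Mixture: Sf9 lysate with His-tagged LBD (~10 nM final, not purified), SRC1-2 LXXLL biotin peptide at 450 nM, 2 nM europium anti-His antibody, 60 nM APC-streptavidin; buffer 25 mM HEPES pH 7.0, 100 mM NaCl, 0.01% Tween, 0.1% BSA.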

[1] = Table 7, tetrahydroquinolines, HEK293 cells, read-out: RORγ HEK IC50
[2] = benzoxazines, Table 9, HEK cells

IC50 (RORγt; [1]) [µM]	IC50 (RORγt; [2]) [µM]	IC50 (RORγ-LBD) [µM]	SMILES
< 15			O=C(Nc1ccc2c(c1)N(S(=O)(=O)c1ccc(Cl)cc1)CCC2)c1c(F)cccc1Cl [Compound 5, 2-Chloro-N-[1-(4-chlorobenzenesulfonyl)-1,2,3,4-tetrahydroquinolin-7-yl]-6-fluorobenzamide]
< 15			Cc1cc2c(cc1NC(=O)c1c(F)cccc1Cl)N(S(=O)(=O)c1ccc(F)cc1)CCC2 [Compound 6, 2-Chloro-6-fluoro-N-[1-(4-fluorobenzenesulfonyl)-6-methyl-1,2,3,4-tetrahydroquinolin-7-yl]benzamide]
	< 15	< 15	COCC1CN(S(=O)(=O)c2ccc(F)cc2)c2cc(NC(=O)c3c(F)cccc3Cl)c(F)cc2O1 (stereo not shown) [Compound 12, 2-Chloro-6-fluoro-N-[7-fluoro-4-(4-fluorobenzenesulfonyl)-2-methoxymethyl-3,4-dihydro-2H-benzo[1,4]oxazin-6-yl]benzamide]
	< 15	< 15	CCOCC1CN(S(=O)(=O)c2ccc(F)cc2)c2cc(NC(=O)c3c(Cl)cccc3C(F)(F)F)ccc2O1 (stereo not shown) [Compound 15, 2-Chloro-N-[2-ethoxymethyl-4-(4-fluoro-benzenesulfonyl)-3,4-dihydro-2H-benzo[1,4]oxazin-6-yl]-6-trifluoromethyl-benzamide]
	< 15	< 15	CC1(C)CN(S(=O)(=O)c2ccc(F)cc2)c2cc(NC(=O)c3c(F)cccc3Cl)ccc2O1 [Compound 16, 2-Chloro-6-fluoro-N-(4-((4-fluorophenyl)sulfonyl)-2,2-dimethyl-3,4-dihydro-2H-benzo[b][1,4]oxazin-6-yl)benzamide]
	< 15	< 15	N#Cc1cccc(S(=O)(=O)N2C[C@H](CO)Oc3ccc(NC(=O)c4c(F)cccc4Cl)cc32)c1 [Compound 20, (R)-2-Chloro-N-(4-((3-cyanophenyl)sulfonyl)-2-(hydroxymethyl)-3,4-dihydro-2H-benzo[b][1,4]oxazin-6-yl)-6-fluorobenzamide]
	< 15	< 15	N#Cc1cccc(S(=O)(=O)N2C[C@H](CN3CCCC3)Oc3ccc(NC(=O)c4c(F)cccc4Cl)cc32)c1 [Compound 21, (S)-2-Chloro-N-(4-((3-cyanophenyl)sulfonyl)-2-(pyrrolidin-1-ylmethyl)-3,4-dihydro-2H-benzo[b][1,4]oxazin-6-yl)-6-fluorobenzamide]
	< 15	< 15	O=C(Nc1ccc2c(c1)N(S(=O)(=O)c1ccc(F)cc1)C[C@H](CF)O2)c1c(F)cccc1Cl [Compound 22, (R)-2-Chloro-6-fluoro-N-(2-(fluoromethyl)-4-((4-fluorophenyl)sulfonyl)-3,4-dihydro-2H-benzo[b][1,4]oxazin-6-yl)benzamide]
	< 15	< 15	C[C@H]1CN(S(=O)(=O)c2ccc(F)cc2)c2cc(NC(=O)c3c(F)cccc3Cl)ccc2O1 [VI-1]
	< 15	< 15	Cc1nn(C(F)F)cc1S(=O)(=O)N1C[C@H](C)Oc2ccc(NC(=O)c3c(F)cccc3F)cc21 [VI-8]
	< 15	< 15	Cc1nn(C(F)F)cc1S(=O)(=O)N1C[C@H](C)Oc2ccc(NC(=O)c3c(Cl)cccc3Cl)cc21 [VI-9]
	< 15	< 15	Cc1nn(C(F)F)cc1S(=O)(=O)N1C[C@H](C)Oc2ccc(NC(=O)c3c(F)cccc3C(F)(F)F)cc21 [VI-10]
	< 15	< 15	Cc1nn(C(F)F)cc1S(=O)(=O)N1C[C@H](C)Oc2ccc(NC(=O)c3c(Cl)cccc3C(F)(F)F)cc21 [VI-11]
	< 15	< 15	Cc1nn(C(F)F)cc1S(=O)(=O)N1C[C@H](C)Oc2ccc(NC(=O)c3c(F)cccc3Cl)cc21 [VI-12]
	< 15	< 15	O=C(Nc1ccc2c(c1)N(S(=O)(=O)c1ccc(F)cc1)CC(CC(F)(F)F)O2)c1c(Cl)cccc1Cl (stereo not shown) [VI-13]
	< 15	< 15	O=C(Nc1ccc2c(c1)N(S(=O)(=O)c1ccc(F)cc1)CC(CC(F)(F)F)O2)c1c(F)cccc1C(F)(F)F (stereo not shown) [VI-14]
	< 15	< 15	O=C(Nc1ccc2c(c1)N(S(=O)(=O)c1ccc(F)cc1)CC(CC(F)(F)F)O2)c1c(Cl)cccc1C(F)(F)F (stereo not shown) [VI-15]

IC50 (RORγt; [1]) [µM]	IC50 (RORγt; [2]) [µM]	IC50 (RORγ-LBD) [µM]	SMILES
	< 15	< 15	O=C(Nc1ccc2c(c1)N(S(=O)(=O)c1ccccc1)C[C@H](CO)O2)c1c(F)cccc1Cl [VI-24]
	< 15	< 15	COc1ccc(S(=O)(=O)N2C[C@H](CO)Oc3ccc(NC(=O)c4c(F)cccc4C(F)(F)F)cc32)cn1 [VI-25]
	< 15	< 15	COc1ccc(S(=O)(=O)N2C[C@H](CO)Oc3ccc(NC(=O)c4c(Cl)cccc4Cl)cc32)cn1 [VI-26]
	< 15	< 15	COc1ccc(S(=O)(=O)N2C[C@H](CO)Oc3ccc(NC(=O)c4c(C)cccc4Cl)cc32)cn1 [VI-27]
	< 15	< 15	COc1ccc(S(=O)(=O)N2C[C@H](CO)Oc3ccc(NC(=O)c4c(F)cccc4Cl)cc32)cn1 [VI-28]
	< 15	< 15	Cc1nn(C(F)F)cc1S(=O)(=O)N1C[C@H](CO)Oc2ccc(NC(=O)c3c(Cl)cccc3C(F)(F)F)cc21 [VI-29]
	< 15	< 15	Cc1nn(C(F)F)cc1S(=O)(=O)N1C[C@H](CO)Oc2ccc(NC(=O)c3c(F)cccc3Cl)cc21 [VI-30]
	< 15	< 15	O=C(Nc1ccc2c(c1)N(S(=O)(=O)c1ccc(F)cc1)CC(CNCC1CC1)O2)c1c(F)cccc1Cl (stereo not shown) [VI-32]
	< 15	< 15	CC(C)NCC1CN(S(=O)(=O)c2ccc(F)cc2)c2cc(NC(=O)c3c(F)cccc3Cl)ccc2O1 (stereo not shown) [VI-35]
	< 15	< 15	CC(C)(C)CNCC1CN(S(=O)(=O)c2ccc(F)cc2)c2cc(NC(=O)c3c(F)cccc3Cl)ccc2O1 (stereo not shown) [VI-36]
	< 15	< 15	O=C(Nc1ccc2c(c1)N(S(=O)(=O)c1ccc(F)cc1)CC(CN(CC1CC1)CC1CC1)O2)c1c(F)cccc1Cl (stereo not shown) [VI-37]
	< 15	< 15	CCN(CC)CC1CN(S(=O)(=O)c2ccc(F)cc2)c2cc(NC(=O)c3c(F)cccc3Cl)ccc2O1 (stereo not shown) [VI-38]
	< 15	< 15	CC(=O)NCC1CN(S(=O)(=O)c2ccc(F)cc2)c2cc(NC(=O)c3c(F)cccc3Cl)ccc2O1 (stereo not shown) [VI-39]
	< 15		O=C(Nc1c(Cl)cccc1Cl)c1ccc2c(c1)N(S(=O)(=O)c1ccc(F)cc1)CCO2 [VI-126]
	< 15		O=C(Nc1c(F)cccc1Cl)c1ccc2c(c1)N(S(=O)(=O)c1ccc(F)cc1)CCO2 [VI-127]
	< 15		O=C(Nc1ccccc1Cl)c1ccc2c(c1)N(S(=O)(=O)c1ccc(F)cc1)CCO2 [VI-128]
